Measured values: patent US9273057B2 (Bristol-Myers Squibb Company, priority 2012, dated 2016)

target: CK2A1 (CK2α/β) (Homo sapiens, UniProt P68400); test: CK2 kinase assay, CK2A1 (CK2α/β); assay type: biochemical; conditions: Table A; read-out: CK2A1 (CK2α/β) (IC50)
Sequence (P68400 whole entry, species assumed): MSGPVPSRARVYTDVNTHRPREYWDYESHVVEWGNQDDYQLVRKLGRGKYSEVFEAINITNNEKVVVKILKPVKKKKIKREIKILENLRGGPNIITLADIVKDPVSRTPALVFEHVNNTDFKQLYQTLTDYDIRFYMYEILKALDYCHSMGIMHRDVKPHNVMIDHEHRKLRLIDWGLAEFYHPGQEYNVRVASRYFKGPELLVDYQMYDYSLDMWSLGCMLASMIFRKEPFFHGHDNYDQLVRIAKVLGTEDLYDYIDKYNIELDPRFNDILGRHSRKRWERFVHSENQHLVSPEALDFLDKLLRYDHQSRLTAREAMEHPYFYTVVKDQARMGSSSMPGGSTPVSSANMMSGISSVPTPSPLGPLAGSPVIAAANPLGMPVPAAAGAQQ
Sequence (P67870 whole entry partner, species assumed): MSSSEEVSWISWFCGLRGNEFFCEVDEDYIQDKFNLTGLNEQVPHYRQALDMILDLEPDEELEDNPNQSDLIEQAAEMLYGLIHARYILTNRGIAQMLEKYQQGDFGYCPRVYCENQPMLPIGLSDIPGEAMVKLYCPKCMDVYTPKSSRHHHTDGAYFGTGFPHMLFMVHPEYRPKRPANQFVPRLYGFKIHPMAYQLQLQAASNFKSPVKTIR

IC50 [nM]	SMILES
0.96	N#Cc1cc(Nc2nc(NC3CC3)c3ncc(C#N)n3n2)c(Cl)c(N2CCN(C(=O)C3CNCCO3)CC2)c1 (racemic) [Example 94, (+/−) 2-(2-chloro-5-cyano-3-(4-(morpholine-2-carbonyl)piperazin-1-yl)phenylamino)-4-(cyclopropylamino) imidazo[1,2-f][1,2,4] triazine-7-carbonitrile]
0.83	CCNc1nc(Nc2cc(C#N)cc(N3CCN(C4CCOC4)CC3)c2Cl)nn2c(C#N)cnc12 (racemic) [Example 103, (+/−) 2-((2-chloro-5-cyano-3-(4-(tetrahydro-3-furanyl)-1-piperazinyl)phenyl)amino)-4-(ethylamino)imidazo [2,1-f][1,2,4]triazine-7-carbonitrile]
4.09	CC1CN(C2CCN(c3cc(C#N)cc(Nc4nc(NC5CC5)c5ncc(C#N)n5n4)c3Cl)CC2)CC(C)O1 (racemic) [Example 109, (+/−) 2-((2-chloro-5-cyano-3-(4-(2,6-dimethyl-4-morpholinyl)-1-piperidinyl)phenyl)amino)-4-(cyclopropylamino)imidazo [2,1-f][1,2,4]triazine-7-carbonitrile]
2.56	N#Cc1cc(Nc2nc(NC3CC3)c3ncc(C#N)n3n2)c(Cl)c(N2CCC(NC3CCOC3)CC2)c1 (racemic) [Example 112, (+/−) 2-((2-chloro-5-cyano-3-(4-(tetrahydro-3-furanylamino)-1-piperidinyl)phenyl)amino)-4-(cyclopropylamino)imidazo [2,1-f][1,2,4]triazine-7-carbonitrile]
1.01	N#Cc1cc(Nc2nc(NC3CC3)c3ncc(C#N)n3n2)c(Cl)c(N2CCC(NC3(CS(=O)(=O)c4ccccc4)COC3)CC2)c1 (racemic) [Example 113, (+/−) 2-((2-chloro-5-cyano-3-(4-((3-((phenylsulfonyl)methyl)-3-oxetanyl)amino)-1-piperidinyl)phenyl)amino)-4-(cyclopropylamino)imidazo [2,1-f][1,2,4]triazine-7-carbonitrile]
1.57	N#CCC1(NC2CCN(c3cc(C#N)cc(Nc4nc(NC5CC5)c5ncc(C#N)n5n4)c3Cl)CC2)COC1 (racemic) [Example 114, (+/−) 2-((2-chloro-5-cyano-3-(4-((3-(cyanomethyl)-3-oxetanyl)amino)-1-piperidinyl)phenyl)amino)-4-(cyclopropylamino)imidazo [2,1-f][1,2,4]triazine-7-carbonitrile]
0.68	CN1CC(NC2CCN(c3cc(C#N)cc(Nc4nc(NC5CC5)c5ncc(C#N)n5n4)c3Cl)CC2)CC1=O (racemic) [Example 116, (+/−) 2-((2-chloro-5-cyano-3-(4-((1-methyl-5-oxo-3-pyrrolidinyl)amino)-1-piperidinyl)phenyl)amino)-4-(cyclopropylamino)imidazo [2,1-f][1,2,4]triazine-7-carbonitrile]
0.69	N#Cc1cc(Nc2nc(NC3CC3)c3ncc(C#N)n3n2)c(Cl)c(N2CCC(N[C@H]3CC[C@H](O)C3)CC2)c1 (racemic) [Example 120, (+/−) 2-((2-chloro-5-cyano-3-(4-(((1S,3S)-3-hydroxycyclopentyl)amino)-1-piperidinyl)phenyl)amino)-4-(cyclopropylamino)imidazo [2,1-f][1,2,4]triazine-7-carbonitrile]
1.05	N#Cc1cc(Nc2nc(NC3CC3)c3ncc(C#N)n3n2)c(Cl)c(N2CCC(N[C@@H]3CC[C@H](O)C3)CC2)c1 (racemic) [Example 121, (+/−) 2-((2-chloro-5-cyano-3-(4-(((1R,3S)-3-hydroxycyclopentyl)amino)-1-piperidinyl)phenyl)amino)-4-(cyclopropylamino)imidazo [2,1-f][1,2,4]triazine-7-carbonitrile]
0.8	C[C@H]1OCC[C@@H]1NC1CCN(c2cc(C#N)cc(Nc3nc(NC4CC4)c4ncc(C#N)n4n3)c2Cl)CC1 (racemic) [Example 122, (+/−) 2-((2-chloro-5-cyano-3-(4-(((2R,3S)-2-methyltetrahydro-3-furanyl)amino)-1-piperidinyl)phenyl)amino)-4-(cyclopropylamino)imidazo [2,1-f][1,2,4]triazine-7-carbonitrile]
0.55	C[C@@H]1OCC[C@@H]1NC1CCN(c2cc(C#N)cc(Nc3nc(NC4CC4)c4ncc(C#N)n4n3)c2Cl)CC1 (racemic) [Example 123, (+/−) 2-((2-chloro-5-cyano-3-(4-(((2S,3S)-2-methyltetrahydro-3-furanyl)amino)-1-piperidinyl)phenyl)amino)-4-(cyclopropylamino)imidazo [2,1-f][1,2,4]triazine-7-carbonitrile]

The remaining lines, values behind:

SMILES	IC50 [nM]
CNC1CCN(c2cc(C#N)cc(Nc3nc(NC4CC4)c4ncc(C#N)n4n3)c2Cl)C1 (racemic) [Example 28, (+/−) 2-((2-chloro-5-cyano-3-(3-(methylamino)-1-pyrrolidinyl)phenyl)amino)-4-(cyclopropylamino)imidazo [2,1-f][1,2,4]triazine-7-carbonitrile]	0.57
N#Cc1cc(Nc2nc(NC3CC3)c3ncc(C#N)n3n2)c(Cl)c(N2CCC3(CCCN3)C2)c1 (racemic) [Example 31, (+/−) 2-((2-chloro-5-cyano-3-(1,7-diazaspiro[4.4]non-7-yl)phenyl)amino)-4-(cyclopropylamino)imidazo [2,1-f][1,2,4]triazine-7-carbonitrile]	0.61
CCNC(=O)N[C@H]1CN(c2cc(C#N)cc(Nc3nc(NC4CC4)c4ncc(C#N)n4n3)c2Cl)C[C@H]1OC (racemic) [Example 32, (+/−) 1-((3S,4R)-1-(2-chloro-5-cyano-3-((7-cyano-4-(cyclopropylamino)imidazo [2,1-f][1,2,4]triazin-2-yl)amino)phenyl)-4-methoxy-3-pyrrolidinyl)-3-ethylurea]	0.8
CC(C)(O)C1CN(c2cc(C#N)cc(Nc3nc(NC4CC4)c4ncc(C#N)n4n3)c2Cl)CCO1 (racemic) [Example 33, (+/−) 2-((2-chloro-5-cyano-3-(2-(1-hydroxy-1-methylethyl)-4-morpholinyl)phenyl)amino)-4-(cyclopropylamino)imidazo [2,1-f][1,2,4]triazine-7-carbonitrile]	0.54
CN1CCN(c2cc(C#N)cc(Nc3nc(NC4CC4)c4ncc(C#N)n4n3)c2Cl)CC1C(C)(C)O (racemic) [Example 34, (+/−) 2-((2-chloro-5-cyano-3-(3-(1-hydroxy-1-methylethyl)-4-methyl-1-piperazinyl)phenyl)amino)-4-(cyclopropylamino)imidazo [2,1-f][1,2,4]triazine-7-carbonitrile]	0.92
CC1CN(c2cc(C#N)cc(Nc3nc(NC4CC4)c4ncc(C#N)n4n3)c2Cl)CCN1C (racemic) [Example 35, (+/−) 2-((2-chloro-5-cyano-3-(3,4-dimethyl-1-piperazinyl)phenyl)amino)-4-(cyclopropylamino)imidazo [2,1-f][1,2,4]triazine-7-carbonitrile]	0.38
CC(CO)N1CCN(c2cc(C#N)cc(Nc3nc(NC4CC4)c4ncc(C#N)n4n3)c2Cl)CC1 (racemic) [Example 54, (+/−) 2-((2-chloro-5-cyano-3-(4-(2-hydroxy-1-methylethyl)-1-piperazinyl)phenyl)amino)-4-(cyclopropylamino) imidazo[2,1-f][1,2,4] triazine-7-carbonitrile]	1.61
N#Cc1cc(Nc2nc(NC3CC3)c3ncc(C#N)n3n2)c(Cl)c(N2CCN([C@@H]3COC[C@H]3O)CC2)c1 (racemic) [Example 59, (+/−) 2-((2-chloro-5-cyano-3-(4-((3R,4S)-4-hydroxytetrahydro-3-furanyl)-1-piperazinyl)phenyl)amino)-4-(cyclopropylamino) imidazo[2,1-f][1,2,4] triazine-7-carbonitrile]	0.59
COCC(C)N1CCN(c2cc(C#N)cc(Nc3nc(NC4CC4)c4ncc(C#N)n4n3)c2Cl)CC1 (racemic) [Example 64, (+/−) 2-((2-chloro-5-cyano-3-(4-(2-methoxy-1-methylethyl)-1-piperazinyl)phenyl)amino)-4-(cyclopropylamino) imidazo[2,1-f][1,2,4] triazine-7-carbonilrile]	0.71
N#Cc1cc(Nc2nc(NC3CC3)c3ncc(C#N)n3n2)c(Cl)c(N2CCN(CC(O)CF)CC2)c1 (racemic) [Example 66, (+/−) 2-((2-chloro-5-cyano-3-(4-(3-fluoro-2-hydroxypropyl)-1-piperazinyl)phenyl)amino)-4-(cyclopropylamino) imidazo[2,1-f][1,2,4] triazine-7-carbonitrile]	0.58
CC(O)C(=O)N1CCN(c2cc(C#N)cc(Nc3nc(NC4CC4)c4ncc(C#N)n4n3)c2Cl)CC1 (racemic) [Example 80, (+/−) 2-((2-chloro-5-cyano-3-(4-lactoyl-1-piperazinyl)phenyl)amino)-4-(cyclopropylamino) imidazo[2,1-f][1,2,4] triazine-7-carbonitrile]	0.47
N#Cc1cc(Nc2nc(NC3CC3)c3ncc(C#N)n3n2)c(Cl)c(N2CCN(C(=O)C3CNC(=O)N3)CC2)c1 (racemic) [Example 81, (+/−)2-((2-chloro-5-cyano-3-(4-((2-oxo-4-imidazolidinyl)carbonyl)-1-piperazinyl)phenyl)amino)-4-(cyclopropylamino) imidazo[2,1-f][1,2,4] triazine-7-carbonitrile]	1.8
N#Cc1cc(Nc2nc(NC3CC3)c3ncc(C#N)n3n2)c(Cl)c(N2CCN(C(=O)C3CCCO3)CC2)c1 (racemic) [Example 84, (+/−) 2-((2-chloro-5-cyano-3-(4-(tetrahydro-2-furanylcarbonyl)-1-piperazinyl)phenyl)amino)-4-(cyclopropylamino) imidazo[2,1-f][1,2,4] triazine-7-carbonitrile]	0.5
CN1CCCC(C(=O)N2CCN(c3cc(C#N)cc(Nc4nc(NC5CC5)c5ncc(C#N)n5n4)c3Cl)CC2)C1 (racemic) [Example 92, (+/−) 2-((2-chloro-5-cyano-3-(4-((1-methyl-3-piperidinyl)carbonyl)-1-piperazinyl)phenyl)amino)-4-(cyclopropylamino) imidazo[2,1-f][1,2,4] triazine-7-carbonitrile]	1.12
